The target of experiment [1] is T1, OdinFtsZ1 (Candidatus Odinarchaeum yellowstonii, UniProt A0AAF0ID74).
T1 construct: full length (363 residues by primer name), synthetic gene, 6His-bdSUMO tag cleaved by Ulp protease, E. coli BL21(DE3); residues 34-332 modelled in cryo-EM
T1 sequence (A0AAF0ID74 1-360): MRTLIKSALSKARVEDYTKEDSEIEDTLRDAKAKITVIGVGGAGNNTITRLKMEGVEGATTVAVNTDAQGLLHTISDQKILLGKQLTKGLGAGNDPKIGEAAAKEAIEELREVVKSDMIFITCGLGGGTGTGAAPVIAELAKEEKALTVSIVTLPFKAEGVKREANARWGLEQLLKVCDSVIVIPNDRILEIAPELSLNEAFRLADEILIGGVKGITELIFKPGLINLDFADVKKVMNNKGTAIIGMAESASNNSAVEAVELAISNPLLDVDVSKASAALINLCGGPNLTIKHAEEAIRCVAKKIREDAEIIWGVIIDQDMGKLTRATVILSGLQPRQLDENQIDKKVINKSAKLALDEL
Put plainly: light scattering and sedimentation assay of polymerization. The format is biochemical. To be noted: […] GTP, […] Mg2+, pH […] KCl, […] °C.

Experiment [2] deals with T2, OdinFtsZ2 (Candidatus Odinarchaeum yellowstonii, UniProt A0AAF0D3V8).
T2 construct: gene ftsZ; full length, synthetic gene, 6His-bdSUMO tag cleaved by Ulp protease, E. coli BL21(DE3); assembles into stacked rings
T2 sequence (A0AAF0D3V8 1-402): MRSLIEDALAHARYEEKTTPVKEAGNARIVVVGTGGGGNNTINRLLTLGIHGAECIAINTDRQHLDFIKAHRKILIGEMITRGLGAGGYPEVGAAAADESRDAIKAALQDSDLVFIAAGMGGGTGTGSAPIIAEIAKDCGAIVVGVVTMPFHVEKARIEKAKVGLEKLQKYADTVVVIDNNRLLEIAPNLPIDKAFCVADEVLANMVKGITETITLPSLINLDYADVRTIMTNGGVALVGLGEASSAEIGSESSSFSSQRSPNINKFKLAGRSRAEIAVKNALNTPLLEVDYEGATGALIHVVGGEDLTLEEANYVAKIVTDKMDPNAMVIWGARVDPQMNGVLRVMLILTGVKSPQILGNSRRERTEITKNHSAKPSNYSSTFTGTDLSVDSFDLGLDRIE
As to the kind of experiment: […] degree light scattering and TEM / cryo-EM of polymerization. The format is biochemical. To be noted: […] GTP, […] Mg2+, pH […] KCl, […] °C; nucleotide-dependent assembly.

Experiment [3] addresses T1, OdinFtsZ1. As to the kind of experiment: cryo-EM structure of filament. The format is binding. The settings on record: […] GMPCPP, […] MgCl2, pH […], on ice; nucleotide pocket at subunit interface; map resolution […] A.
In experiment [4] the target is OdinSepF (Candidatus Odinarchaeum yellowstonii LCB_4). Put plainly: SEC-MALS; Superdex 75 Increase 10/300 GL, HK50 buffer (50 mM HEPES pH 7.4, 50 mM KCl), room temperature, OdinSepF 2 mg/ml, 100 μl. (In general: Size exclusion chromatography separates by hydrodynamic size, large species first.)
In experiment [5] the target is T2, OdinFtsZ2. As to the kind of experiment: negative-stain TEM of polymerization. The format is biochemical. The settings on record: […] nucleotide, […] MgCl2, pH […] KCl, […] °C.

Experimental findings from PMC12583498, “Distinct filament morphology and membrane tethering features of the dual FtsZ paralogs in Odinarchaeota” (The EMBO journal, 2025) are described below.

In the case of `Nc1nc2c(ncn2[C@@H]2O[C@H](COP(=O)(O)OP(=O)(O)OP(=O)(O)O)[C@@H](O)[C@H]2O)c(=O)[nH]1` [GTP], on OdinFtsZ1 [1], the “light scattering and sedimentation assay of polymerization” value is recorded as “GTP addition significantly enhanced the amount of OdinFtsZ1 in the pellet fraction”. Also, the “90 degree light scattering and TEM / cryo-EM of polymerization” value on OdinFtsZ2 [2] is on record as “OdinFtsZ2 formed highly curved, stacked ring-like structures when provided with GTP or GTPγS”.

With `Nc1nc2c(ncn2[C@@H]2O[C@H](COP(=O)(O)CP(=O)(O)OP(=O)(O)O)[C@@H](O)[C@H]2O)c(=O)[nH]1` [GMPCPP], on OdinFtsZ1 [3], the “cryo-EM structure of filament” value is listed as “A non-protein density was detected within the nucleotide-binding pocket using Servalcat”.

In general, stoichiometry N refers to the number of molecules, sites or subunits per partner or assembly. In experiment [4], OdinSepF (natural protein) came in with a stoichiometry N of 2.

Regarding `Nc1nc2c(ncn2[C@@H]2O[C@H](COP(=O)(O)OP(=O)(O)OP(O)(O)=S)[C@@H](O)[C@H]2O)c(=O)[nH]1` [GTPγS], the “negative-stain TEM of polymerization” value at OdinFtsZ2 [5] is reported as “OdinFtsZ2 formed highly curved, stacked ring-like structures when provided with GTP or GTPγS”.
